Reference: PubChem BioAssay AID1963850 (Molecular Pharmacology Branch, DTP, NCI, 2024)

Test system: 192522-019-R-J2-PDC complex tumor spheroid viability
Experiment: Anticancer human tumor 192522-019-R-J2-PDC patient-derived colon adenocarcinoma cell line growth inhibition [POLQ]
Details: for IC50: curve of first compound; for viability, T/C: stronger effect = lower value
Summary of the method: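 Complex spheroid viability model combining PDC tumour cells with endothelial (HUVEC) and MSC stromal cells. Novobiocin, ART-558 or RP6685 were tested singly and in combination with standard and investigational anticancer drugs. Each was titrated in half-log steps from near clinical Cmax, or from 10 microM where Cmax was unknown.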

[1] = second compound 0.0316 µM, first compound 0.0316 µM
[2] = second compound 0.0316 µM, first compound 0.1 µM
[3] = second compound 0.1 µM, first compound 0.0316 µM
[4] = second compound 0.1 µM, first compound 0.1 µM
[5] = second compound 0.316 µM, first compound 0.0316 µM
[6] = second compound 0.316 µM, first compound 0.1 µM
[7] = second compound 1 µM, first compound 0.0316 µM
[8] = second compound 1 µM, first compound 0.1 µM
[9] = second compound 3.16 µM, first compound 0.0316 µM
[10] = second compound 3.16 µM, first compound 0.1 µM
[11] = second compound 10 µM, first compound 0.0316 µM
[12] = second compound 10 µM, first compound 0.1 µM
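Note: spheroids exposed to drugs for seven days before reading.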
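Throughout, for viability, T/C: 100% = DMSO vehicle control viability in luminescence.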

SMILES: O=c1[nH]cc(F)c(=O)[nH]1 + Cc1cccc(N(C)C(=O)C2C(O)CCN2c2nc(C)cc(C(F)(F)F)c2C#N)c1
- IC50 (second compound 0.0316 µM): > 10 µM
- IC50 (second compound 0.1 µM): > 10 µM
- IC50 (second compound 0.316 µM): > 10 µM
- IC50 (second compound 1 µM): > 10 µM
- IC50 (second compound 3.16 µM): > 10 µM
- IC50 (second compound 10 µM): > 10 µM
- viability, T/C [1]: 111%
- viability, T/C [2]: 88.5%
- viability, T/C (second compound 0.0316 µM, first compound 0.316 µM): 76.8%
- viability, T/C (second compound 0.0316 µM, first compound 1 µM): 87.2%
- viability, T/C (second compound 0.0316 µM, first compound 3.16 µM): 91.3%
- viability, T/C (second compound 0.0316 µM, first compound 10 µM): 72.4%
- viability, T/C [3]: 103%
- viability, T/C [4]: 92.8%
- viability, T/C (second compound 0.1 µM, first compound 0.316 µM): 84.6%
- viability, T/C (second compound 0.1 µM, first compound 1 µM): 81.7%
- viability, T/C (second compound 0.1 µM, first compound 3.16 µM): 81%
- viability, T/C (second compound 0.1 µM, first compound 10 µM): 85.3%
- viability, T/C [5]: 95.5%
- viability, T/C [6]: 95.9%
- viability, T/C (second compound 0.316 µM, first compound 0.316 µM): 85%
- viability, T/C (second compound 0.316 µM, first compound 1 µM): 80.7%
- viability, T/C (second compound 0.316 µM, first compound 3.16 µM): 78%
- viability, T/C (second compound 0.316 µM, first compound 10 µM): 86.1%
- viability, T/C [7]: 96.8%
- viability, T/C [8]: 92.9%
- viability, T/C (second compound 1 µM, first compound 0.316 µM): 87.1%
- viability, T/C (second compound 1 µM, first compound 1 µM): 96.1%
- viability, T/C (second compound 1 µM, first compound 3.16 µM): 89%
- viability, T/C (second compound 1 µM, first compound 10 µM): 82.9%
- viability, T/C [9]: 112%
- viability, T/C [10]: 88.9%
- viability, T/C (second compound 3.16 µM, first compound 0.316 µM): 87.1%
- viability, T/C (second compound 3.16 µM, first compound 1 µM): 81.4%
- viability, T/C (second compound 3.16 µM, first compound 3.16 µM): 93.1%
- viability, T/C (second compound 3.16 µM, first compound 10 µM): 78.6%
- viability, T/C [11]: 106%
- viability, T/C [12]: 89.1%
- viability, T/C (second compound 10 µM, first compound 0.316 µM): 81.6%
- viability, T/C (second compound 10 µM, first compound 1 µM): 83.6%
- viability, T/C (second compound 10 µM, first compound 3.16 µM): 88.3%
- viability, T/C (second compound 10 µM, first compound 10 µM): 75.9%

SMILES: Cn1ncnc1[C@H]1c2n[nH]c(=O)c3cc(F)cc(c23)N[C@@H]1c1ccc(F)cc1 + Nc1ccc(C#CCN(C(=O)Cc2ncc(C(F)(F)F)cc2C(F)(F)F)c2ccc(F)cc2)nn1
- IC50 (second compound 0.0316 µM): > 0.1 µM
- IC50 (second compound 0.1 µM): > 0.1 µM
- IC50 (second compound 0.316 µM): > 0.1 µM
- IC50 (second compound 1 µM): > 0.1 µM
- IC50 (second compound 3.16 µM): > 0.1 µM
- IC50 (second compound 10 µM): > 0.1 µM
- viability, T/C (second compound 0.0316 µM, first compound 0.000316 µM): 101%
- viability, T/C (second compound 0.0316 µM, first compound 0.001 µM): 108%
- viability, T/C (second compound 0.0316 µM, first compound 0.00316 µM): 101%
- viability, T/C (second compound 0.0316 µM, first compound 0.01 µM): 104%
- viability, T/C [1]: 99.4%
- viability, T/C [2]: 98.9%
- viability, T/C (second compound 0.1 µM, first compound 0.000316 µM): 108%
- viability, T/C (second compound 0.1 µM, first compound 0.001 µM): 100%
- viability, T/C (second compound 0.1 µM, first compound 0.00316 µM): 107%
- viability, T/C (second compound 0.1 µM, first compound 0.01 µM): 110%
- viability, T/C [3]: 113%
- viability, T/C [4]: 91.4%
- viability, T/C (second compound 0.316 µM, first compound 0.000316 µM): 107%
- viability, T/C (second compound 0.316 µM, first compound 0.001 µM): 95.4%
- viability, T/C (second compound 0.316 µM, first compound 0.00316 µM): 97.9%
- viability, T/C (second compound 0.316 µM, first compound 0.01 µM): 108%
- viability, T/C [5]: 111%
- viability, T/C [6]: 102%
- viability, T/C (second compound 1 µM, first compound 0.000316 µM): 119%
- viability, T/C (second compound 1 µM, first compound 0.001 µM): 109%
- viability, T/C (second compound 1 µM, first compound 0.00316 µM): 102%
- viability, T/C (second compound 1 µM, first compound 0.01 µM): 99.9%
- viability, T/C [7]: 105%
- viability, T/C [8]: 114%
- viability, T/C (second compound 3.16 µM, first compound 0.000316 µM): 102%
- viability, T/C (second compound 3.16 µM, first compound 0.001 µM): 107%
- viability, T/C (second compound 3.16 µM, first compound 0.00316 µM): 109%
- viability, T/C (second compound 3.16 µM, first compound 0.01 µM): 106%
- viability, T/C [9]: 105%
- viability, T/C [10]: 104%
- viability, T/C (second compound 10 µM, first compound 0.000316 µM): 108%
- viability, T/C (second compound 10 µM, first compound 0.001 µM): 114%
- viability, T/C (second compound 10 µM, first compound 0.00316 µM): 109%
- viability, T/C (second compound 10 µM, first compound 0.01 µM): 99.2%
- viability, T/C [11]: 99.2%
- viability, T/C [12]: 107%
